The text below walks through data of patent publication US20140243292A1, “SUBSITUTED 2-(CHROMAN-6-YLOXYL)-THIAZOLES AND THEIR USE AS PHARMACEUTICALS” (Sanofi, priority 2011, published 2014).

Counter-ions that a name gives are not always drawn.

The target in this experiment is T1, human NCX1 (Homo sapiens, UniProt P32418).
T1 construct: expressed in transfected cells
Put plainly: NCX1 inhibition, reverse mode (Ca2+ influx into cells), FLIPR Fluo-4 assay. In kind it is cell-based. As to conditions: inhibition of NCX1 in reverse mode (Ca2+ influx into cells); read-out: NCX1rv IC50. A digest of the protocol:
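Max−min Fluo-4 fluorescence (520 nm, FLIPR, 240 points at 2 s) after 20 µM final gramicidin, which drives Na+ loading and reverse-mode Ca2+ entry, gave % inhibition and IC50. Test compound was preincubated 45 min at 16 °C with Fluo-4-loaded CHO cells stably expressing human NCX1, in pH 7.4 buffer containing 3.5 mM CaCl2 and probenecid.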
As usually defined, the IC50 is the concentration needed to halve the response being measured. With `O=C(Cc1ccccn1)NCc1cnc(Oc2ccc3c(c2)CCC(c2ccccc2)O3)s1` (stereo not drawn) [compound 19, hydrochloride], the IC50 is 100 nM.

Take `Cc1nc(C(=O)NCc2cnc(Oc3ccc4c(c3)CCC(c3ccccc3)O4)s2)cs1` (stereo not drawn) [compound 73]: the half-inhibitory concentration (IC50) turned out to be 300 nM.

Take `Cc1noc(C)c1C(=O)NCc1cnc(Oc2ccc3c(c2)CCC(c2ccccc2)O3)s1` (stereo not drawn) [compound 65]: the IC50 was found to be 200 nM.

For `O=C(c1cnc(Oc2ccc3c(c2)CC[C@@H](c2ccccc2)O3)s1)N1CCC2(CCCNC2)C1` (stereo partly drawn) [compound 290], the concentration for half-maximal inhibition (IC50) stood at 600 nM.

For `Cc1ccc(C2CCc3cc(Oc4ncc(C(=O)NCc5ccno5)s4)ccc3O2)cn1` (stereo not drawn) [compound 232], the IC50 worked out at 1500 nM.

For `O=C(NCc1ccncc1)c1cnc(Oc2ccc3c(c2)CCC(c2ccsc2)O3)s1` (stereo not drawn) [compound 60, hydrochloride], the IC50 was 100 nM.

On to `O=C(NCc1cnc(Oc2ccc3c(c2)CCC(c2ccccc2)O3)s1)c1cccnc1` (stereo not drawn) [compound 15, hydrochloride], for which the IC50 was 100 nM.

For the compound `CC(C)OC(=O)CNC(=O)c1cnc(Oc2ccc3c(c2)CCC(c2ccccc2)O3)s1` (stereo not drawn) [compound 307], the IC50 is 200 nM.

As to `CN1CCN(Cc2cnc(Oc3ccc4c(c3)CCC(c3ccccc3)O4)s2)CC1` (stereo not drawn) [compound 122], the half-inhibitory concentration (IC50) turned out to be 800 nM.

As to `Cc1cc(C(=O)NCc2cnc(Oc3ccc4c(c3)CCC(c3ccccc3)O4)s2)on1` (stereo not drawn) [compound 84], the half-inhibitory concentration (IC50) turned out to be 300 nM.

On to `CCc1ccccc1C1CCc2cc(Oc3ncc(C(=O)NCCc4c(C)noc4C)s3)ccc2O1` (stereo not drawn) [compound 323], for which the half-maximal inhibitory concentration (IC50) came to 900 nM.

In the case of `Cc1noc(C)c1CCC(=O)NCc1cnc(Oc2ccc3c(c2)CCC(c2ccccc2)O3)s1` (stereo not drawn) [compound 94], the IC50 is 900 nM.

With `COC(=O)CNC(=O)c1cnc(Oc2ccc3c(c2)CCC(c2ccccc2)O3)s1` (stereo not drawn) [compound 294], the IC50 worked out at 200 nM.

As to `O=C(NCc1cnc(Oc2ccc3c(c2)CCC(c2ccccc2)O3)s1)c1ccncc1F` (stereo not drawn) [compound 81], the IC50 was 1100 nM.

For the compound `Cc1nc(C)c(C(=O)NCc2cnc(Oc3ccc4c(c3)CCC(c3ccccc3)O4)s2)o1` (stereo not drawn) [compound 78], the half-maximal inhibitory concentration (IC50) turned out to be 300 nM.

With `Oc1cc(CNCc2cnc(Oc3ccc4c(c3)CCC(c3ccccc3)O4)s2)ccn1` (stereo not drawn) [compound 154], the IC50 amounted to 300 nM.

For the compound `Cc1ccccc1C1CCc2cc(Oc3ncc(C(=O)NCCc4c(C)noc4C)s3)ccc2O1` (stereo not drawn) [compound 176], the IC50 turned out to be 400 nM.

For `COc1cccc(C2CCc3cc(Oc4ncc(C(=O)NCCO)s4)ccc3O2)c1F` (stereo not drawn) [compound 360], the IC50 is 1800 nM.

As for `c1ccc(C2CCc3cc(Oc4ncc(CN5CCOCC5)s4)ccc3O2)cc1` (stereo not drawn) [compound 117], the IC50 was determined as 300 nM.

For the compound `Cc1nc(C)c(S(=O)(=O)NCc2cnc(Oc3ccc4c(c3)CCC(c3ccccc3)O4)s2)s1` (stereo not drawn) [compound 126], the IC50 turned out to be 600 nM.

Regarding `COC(=O)[C@H](O)[C@H](CC(C)C)NC(=O)c1cnc(Oc2ccc3c(c2)CC[C@@H](c2ccccc2)O3)s1` [compound 226], the IC50 was found to be 700 nM.

Regarding `CC(C)c1csc([C@H](C)NC(=O)c2cnc(Oc3ccc4c(c3)CCC(c3ccccc3)O4)s2)n1` (stereo partly drawn) [compound 53], the IC50 was determined as 700 nM.

On to `O=C(NCc1cnc(Oc2ccc3c(c2)CCC(c2cccc(F)c2)O3)s1)c1cccnc1` (stereo not drawn) [compound 44, hydrochloride], for which the half-maximal inhibitory concentration (IC50) worked out at 200 nM.

As for `COc1cccc(C2CCc3cc(Oc4ncc(C(=O)NCc5ccno5)s4)ccc3O2)c1F` (stereo not drawn) [compound 361], the IC50 worked out at 9600 nM.

With `Cc1nn(C)c(C)c1C(=O)NCc1cnc(Oc2ccc3c(c2)CCC(c2ccccc2)O3)s1` (stereo not drawn) [compound 67], the IC50 worked out at 300 nM.

Consider `Cn1nccc1CNCc1cnc(Oc2ccc3c(c2)CCC(c2ccccc2)O3)s1` (stereo not drawn) [compound 146], for which the IC50 came to 200 nM.

As to `CC(C)(C)OC(=O)CNC(=O)c1cnc(Oc2ccc3c(c2)CCC(c2ccccc2)O3)s1` (stereo not drawn) [compound 306], the 50% inhibitory concentration (IC50) came to 500 nM.

Turning to `N#Cc1ccc(CNCc2cnc(Oc3ccc4c(c3)CCC(c3ccccc3)O4)s2)cn1` (stereo not drawn) [compound 157], the IC50 was 200 nM.

As to `O=C(CN1CC[C@@H](O)C1)NCc1cnc(Oc2ccc3c(c2)CCC(c2ccccc2)O3)s1` (stereo partly drawn) [compound 175], the IC50 is 400 nM.

Regarding `CCCCNC(=O)c1cnc(Oc2ccc3c(c2)CCC(c2ccccc2)O3)s1` (stereo not drawn) [compound 317], the 50% inhibitory concentration (IC50) turned out to be 100 nM.

As to `CC1CN(C(=O)c2cnc(Oc3ccc4c(c3)CC[C@@H](c3ccccc3)O4)s2)CC1C(=O)O` (stereo partly drawn) [compound 235], the IC50 amounted to 500 nM.

In the case of `COC(=O)[C@@H]1[C@@H]2C[C@@H]2CN1C(=O)c1cnc(Oc2ccc3c(c2)CC[C@@H](c2ccccc2)O3)s1` [compound 222], the concentration for half-maximal inhibition (IC50) stood at 900 nM.

Take `COC(=O)C1CN(C(=O)c2cnc(Oc3ccc4c(c3)CC[C@@H](c3ccccc3)O4)s2)CC1C` (stereo partly drawn) [compound 224]: the IC50 was 300 nM.

As for `Cc1cc(NCc2cnc(Oc3ccc4c(c3)CCC(c3ccccc3)O4)s2)on1` (stereo not drawn) [compound 111], the IC50 amounted to 800 nM.

Turning to `c1ccc(C2CCc3cc(Oc4ncc(CN5CC6CCC(CC6)C5)s4)ccc3O2)cc1` (stereo not drawn) [compound 108], the IC50 is 1400 nM.

With `NC1CC(NC(=O)c2cnc(Oc3ccc4c(c3)CCC(c3cccnc3)O4)s2)C1` (stereo not drawn) [compound 265, hydrochloride], the IC50 was determined as 7300 nM.

For `O=C(c1cnc(Oc2ccc3c(c2)CCC(c2ccccc2)O3)s1)N(CCO)CCO` (stereo not drawn) [compound 312], the IC50 was 100 nM.

`CCOC(=O)[C@@H](NC(=O)c1cnc(Oc2ccc3c(c2)CCC(c2cccnc2)O3)s1)C(C)C` (stereo partly drawn) [compound 263]: the IC50 came out at 25200 nM.

`Cc1ccc(F)cc1C1CCc2cc(Oc3ncc(C(=O)NCCN4CCNC4=O)s3)ccc2O1` (stereo not drawn) [compound 349]: the IC50 was 200 nM.

Turning to `CC(C)(C)NCc1cnc(Oc2ccc3c(c2)CCC(c2ccccc2)O3)s1` (stereo not drawn) [compound 118], the half-maximal inhibitory concentration (IC50) came to 400 nM.

Take `CC[C@@H](C)[C@H](CO)NC(=O)c1cnc(Oc2ccc3c(c2)CC[C@@H](c2ccccc2)O3)s1` [compound 209]: the IC50 was found to be 300 nM.

On to `Cc1noc(C)c1CNCc1cnc(Oc2ccc3c(c2)CCC(c2ccccc2)O3)s1` (stereo not drawn) [compound 152], for which the IC50 worked out at 300 nM.

On to `Cc1ccccc1C1CCc2cc(Oc3ncc(C(=O)NCc4ccncc4)s3)ccc2O1` (stereo not drawn) [compound 179], for which the half-inhibitory concentration (IC50) was 500 nM.

With `O=C(O)CNC(=O)c1cnc(Oc2ccc3c(c2)CC[C@@H](c2ccccc2)O3)s1` [compound 192], the IC50 was found to be 500 nM.

With `NCC(=O)NCc1cnc(Oc2ccc3c(c2)CC[C@@H](c2ccccc2)O3)s1` [compound 302], the IC50 is 400 nM.

Consider `CC(C)C[C@H](NC(=O)c1cnc(Oc2ccc3c(c2)CC[C@@H](c2ccccc2)O3)s1)[C@@H](O)C(=O)O` [compound 236], for which the IC50 turned out to be 1600 nM.

On to `O=C(NCc1ccncc1Cl)c1cnc(Oc2ccc3c(c2)CCC(c2ccccc2)O3)s1` (stereo not drawn) [compound 40], for which the IC50 worked out at 400 nM.

As to `CN1CCN(Cc2cnc(Oc3ccc4c(c3)CCC(c3ccccc3)O4)s2)CC1=O` (stereo not drawn) [compound 102], the IC50 was 400 nM.

With `Cc1c(CNC(=O)c2cnc(Oc3ccc4c(c3)CCC(c3cccc(F)c3)O4)s2)cnn1C` (stereo not drawn) [compound 51], the IC50 came out at 200 nM.

As to `O=C(N[C@H](CO)c1ccccc1)c1cnc(Oc2ccc3c(c2)CCC(c2cccnc2)O3)s1` (stereo partly drawn) [compound 251], the IC50 turned out to be 1100 nM.

For the compound `C[C@H](NC(=O)c1cnc(Oc2ccc3c(c2)CCC(c2ccccc2)O3)s1)c1nc(C2CC2)cs1` (stereo partly drawn) [compound 52], the IC50 was determined as 400 nM.
